Assay results published in ChEMBL document CHEMBL1201862, “PubChem BioAssay data set” (2004).
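Method: 48-hour compound exposure of cells in 96-well plates, five concentrations, linear interpolation of endpoints. GI50: concentration for 50% inhibition of growth.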 The source made the active and inactive calls. Cut-off read from the data, not from the text of the source: active = GI50 up to about 1.1 µM and inactive = higher.

Key:
Assay in all cases: NCI-60 cell line screen, 48 h
[1] = test system: A498
[2] = test system: CCRF-CEM
[3] = test system: HCC 2998
[4] = test system: IGROV-1
[5] = test system: KM12
[6] = test system: MCF7
[7] = test system: MDA-MB-231
[8] = test system: MDA-MB-435
[9] = test system: Malme-3M
[10] = test system: OVCAR-3
[11] = test system: RPMI-8226
[12] = test system: RXF 393
[13] = test system: SF-295
[14] = test system: SF-539
[15] = test system: SK-OV-3
[16] = test system: SN12C
[17] = test system: SNB-19
[18] = test system: T47D
[19] = test system: TK-10
[20] = test system: SR

SMILES	GI50 [1]	GI50 [2]	GI50 [3]	GI50 [4]	GI50 [5]	GI50 [6]	GI50 [7]	GI50 [8]	GI50 [9]	GI50 [10]	GI50 [11]	GI50 [12]	GI50 [13]	GI50 [14]	GI50 [15]	GI50 [16]	GI50 [17]	GI50 [18]	GI50 [19]	GI50 [20]
N#CCCC1C(C#N)C2(Cl)CC1(Cl)C(Cl)=C2Cl (stereo not drawn)	> 10 µM (inactive)	> 10 µM (inactive)	> 10 µM (inactive)	> 10 µM (inactive)	> 10 µM (inactive)	> 10 µM (inactive)	> 10 µM (inactive)	> 10 µM (inactive)	> 10 µM (inactive)	> 10 µM (inactive)	> 10 µM (inactive)	> 10 µM (inactive)	> 10 µM (inactive)	> 10 µM (inactive)	> 10 µM (inactive)	> 10 µM (inactive)	> 10 µM (inactive)	> 10 µM (inactive)	> 10 µM (inactive)	–
Cc1ccc(/N=N/NCCCCN/N=N/c2ccc(C)cc2)cc1	54.6 µM (inactive)	1 µM (active)	13.9 µM (inactive)	12.5 µM (inactive)	–	78.3 µM (inactive)	> 100 µM (inactive)	11.8 µM (inactive)	> 100 µM (inactive)	> 100 µM (inactive)	–	> 100 µM (inactive)	8.22 µM (inactive)	> 100 µM (inactive)	> 100 µM (inactive)	> 100 µM (inactive)	–	11.5 µM (inactive)	1.65 µM (inactive)	17.5 µM (inactive)
Cc1ccc(Cl)cc1/N=N/C(=O)NNc1cc(Cl)ccc1C	20.3 µM (inactive)	10 µM (inactive)	40.4 µM (inactive)	15.3 µM (inactive)	33.1 µM (inactive)	27.8 µM (inactive)	16.8 µM (inactive)	25.2 µM (inactive)	24 µM (inactive)	14.7 µM (inactive)	19.9 µM (inactive)	21 µM (inactive)	19.4 µM (inactive)	–	20.3 µM (inactive)	29.4 µM (inactive)	19.4 µM (inactive)	33.3 µM (inactive)	–	37.7 µM (inactive)
CC1CN=C(NCc2ccccc2)S1 (stereo not drawn)	> 100 µM (inactive)	> 100 µM (inactive)	> 100 µM (inactive)	–	> 100 µM (inactive)	> 100 µM (inactive)	> 100 µM (inactive)	39.1 µM (inactive)	> 100 µM (inactive)	> 100 µM (inactive)	> 100 µM (inactive)	4.17 µM (inactive)	–	> 100 µM (inactive)	> 100 µM (inactive)	> 100 µM (inactive)	> 100 µM (inactive)	> 100 µM (inactive)	> 100 µM (inactive)	29 µM (inactive)
O=c1n(CC2CO2)c2ccccc2n1CC1CS1 (stereo not drawn)	–	63.2 µM (inactive)	> 100 µM (inactive)	> 100 µM (inactive)	> 100 µM (inactive)	–	–	–	> 100 µM (inactive)	78.7 µM (inactive)	36.3 µM (inactive)	57 µM (inactive)	> 100 µM (inactive)	> 100 µM (inactive)	> 10 µM (inactive)	> 100 µM (inactive)	> 100 µM (inactive)	–	> 100 µM (inactive)	44.7 µM (inactive)
CCC1=NC(C(F)(F)F)(C(F)(F)F)N=C(N2CCOCC2)O1	–	> 100 µM (inactive)	> 100 µM (inactive)	> 100 µM (inactive)	> 100 µM (inactive)	> 100 µM (inactive)	> 100 µM (inactive)	> 100 µM (inactive)	–	> 100 µM (inactive)	> 100 µM (inactive)	> 100 µM (inactive)	> 100 µM (inactive)	> 100 µM (inactive)	> 100 µM (inactive)	> 100 µM (inactive)	> 100 µM (inactive)	> 100 µM (inactive)	> 100 µM (inactive)	> 100 µM (inactive)
COC(C/C=C\C=C\CC/C=C/CC(C)/C=C/C(=C\C(=O)O)CC(=O)O)/C(C)=C\C=C(/C)C(=O)O (stereo not drawn)	> 100 µM (inactive)	> 100 µM (inactive)	> 100 µM (inactive)	> 100 µM (inactive)	> 100 µM (inactive)	–	> 100 µM (inactive)	> 100 µM (inactive)	> 100 µM (inactive)	> 100 µM (inactive)	> 100 µM (inactive)	–	> 100 µM (inactive)	–	> 100 µM (inactive)	> 100 µM (inactive)	> 100 µM (inactive)	–	> 100 µM (inactive)	> 100 µM (inactive)
COC(c1ccc(C(C)(C)C)cc1)(c1ccc(C(C)(C)C)cc1)c1cc(C(O)(c2cc(C(OC)(c3ccc(C(C)(C)C)cc3)c3ccc(C(C)(C)C)cc3)c(C)cc2C)c2cc(C(OC)(c3ccc(C(C)(C)C)cc3)c3ccc(C(C)(C)C)cc3)c(C)cc2C)c(C)cc1C	> 100 µM (inactive)	> 100 µM (inactive)	> 100 µM (inactive)	> 100 µM (inactive)	–	> 100 µM (inactive)	> 100 µM (inactive)	> 100 µM (inactive)	> 100 µM (inactive)	> 100 µM (inactive)	–	> 100 µM (inactive)	> 100 µM (inactive)	> 100 µM (inactive)	> 100 µM (inactive)	–	–	> 100 µM (inactive)	> 100 µM (inactive)	> 100 µM (inactive)
CC1(C)CCc2cc3c(-c4ccccc4)cc(=O)oc3cc2O1	> 100 µM (inactive)	> 100 µM (inactive)	–	> 100 µM (inactive)	–	–	–	–	> 100 µM (inactive)	> 100 µM (inactive)	> 100 µM (inactive)	–	48.3 µM (inactive)	38.5 µM (inactive)	> 100 µM (inactive)	> 100 µM (inactive)	87.5 µM (inactive)	–	> 100 µM (inactive)	–
CCOC(=O)c1csc(NC(=O)CN(C)C)n1	> 100 µM (inactive)	> 100 µM (inactive)	> 100 µM (inactive)	> 100 µM (inactive)	> 100 µM (inactive)	> 100 µM (inactive)	> 100 µM (inactive)	> 100 µM (inactive)	–	> 100 µM (inactive)	> 100 µM (inactive)	> 100 µM (inactive)	> 100 µM (inactive)	> 100 µM (inactive)	> 100 µM (inactive)	–	> 100 µM (inactive)	> 100 µM (inactive)	> 100 µM (inactive)	> 100 µM (inactive)
C=C(C)C1CC2=C(O1)C(=O)c1ccccc1C2=O (stereo not drawn) [DEHYDROISO-ALPHA-LAPACHONE]	–	16.3 µM (inactive)	19.1 µM (inactive)	20 µM (inactive)	18.3 µM (inactive)	–	–	–	–	18.9 µM (inactive)	15.1 µM (inactive)	18.9 µM (inactive)	–	18.5 µM (inactive)	> 100 µM (inactive)	19.1 µM (inactive)	29.8 µM (inactive)	–	23 µM (inactive)	–
Cc1cn(C2CC(O)C(Cn3nncc3Cn3ncc(=O)[nH]c3=O)O2)c(=O)[nH]c1=O (stereo not drawn)	> 100 µM (inactive)	> 100 µM (inactive)	> 100 µM (inactive)	> 100 µM (inactive)	> 100 µM (inactive)	> 100 µM (inactive)	> 100 µM (inactive)	> 100 µM (inactive)	> 100 µM (inactive)	> 100 µM (inactive)	> 100 µM (inactive)	> 100 µM (inactive)	> 100 µM (inactive)	> 100 µM (inactive)	77.1 µM (inactive)	> 100 µM (inactive)	> 100 µM (inactive)	> 100 µM (inactive)	> 100 µM (inactive)	–
O=c1c2ccccc2[nH]c2cc(O)cc(O)c12	–	49 µM (inactive)	50.2 µM (inactive)	< 0.01 µM (active)	34.9 µM (inactive)	–	–	–	56.8 µM (inactive)	53.1 µM (inactive)	–	> 100 µM (inactive)	42.9 µM (inactive)	41.5 µM (inactive)	85.5 µM (inactive)	61.4 µM (inactive)	> 100 µM (inactive)	–	> 100 µM (inactive)	–
CCCCOC(=O)CN1C(=O)c2ccccc2C1=O	–	–	> 100 µM (inactive)	> 100 µM (inactive)	> 100 µM (inactive)	–	–	–	> 100 µM (inactive)	> 100 µM (inactive)	–	> 100 µM (inactive)	> 100 µM (inactive)	> 100 µM (inactive)	> 100 µM (inactive)	–	> 100 µM (inactive)	–	> 100 µM (inactive)	> 100 µM (inactive)
